Experimental data published in PubChem BioAssay AID1963863 (Molecular Pharmacology Branch, DTP, NCI, 2024).

Test system: 931267-113-T-J1-PDC KRAS spheroid with HUVEC/MSC, viability
Assay: Anticancer human tumor 931267-113-T-J1-PDC patient-derived colon adenocarcinoma cell line growth inhibition [KRAS2]
Settings: for viability, T/C: stronger effect = lower value; active means viability on the fitted dose curve at most 10% of control; inactive means the rest
Procedure, shortened: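 KRAS-mutant tumor cells were grown as spheroids with HUVEC endothelial cells and human MSCs as stroma. Targeted agents were tested alone and with KRAS pathway inhibitors. Doses started at or near clinical Cmax, or 10 microM, descending half-log.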
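Further: compound exposure lasted 7 days before the readout.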
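Wherever viability, T/C is given: 100% = DMSO vehicle control viability.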

Cn1ncnc1[C@H]1c2n[nH]c(=O)c3cc(F)cc(c23)N[C@@H]1c1ccc(F)cc1 + CNCc1ccccc1-c1csc(C(C)Nc2nc(C)nc3cc(OC)c(OC)cc23)c1
> 100 nM: IC50 (curve of first compound, second compound 0.1 µM) | IC50 (curve of first compound, second compound 0.316 µM)
< 0.316 nM: IC50 (curve of first compound, second compound 1 µM) | IC50 (curve of first compound, second compound 3.16 µM) | IC50 (curve of first compound, second compound 10 µM)
inactive: viability, T/C (second compound 0.1 µM, first compound 0.000316 µM) 95.4% | viability, T/C (second compound 0.1 µM, first compound 0.001 µM) 85.4% | viability, T/C (second compound 0.1 µM, first compound 0.00316 µM) 92.4% | viability, T/C (second compound 0.1 µM, first compound 0.01 µM) 84% | viability, T/C (second compound 0.1 µM, first compound 0.0316 µM) 80.9% | viability, T/C (second compound 0.1 µM, first compound 0.1 µM) 72.6% | viability, T/C (second compound 0.316 µM, first compound 0.000316 µM) 62.4% | viability, T/C (second compound 0.316 µM, first compound 0.001 µM) 66.7% | viability, T/C (second compound 0.316 µM, first compound 0.00316 µM) 66.5% | viability, T/C (second compound 0.316 µM, first compound 0.01 µM) 59.9% | viability, T/C (second compound 0.316 µM, first compound 0.0316 µM) 52.5% | viability, T/C (second compound 0.316 µM, first compound 0.1 µM) 56.6% | viability, T/C (second compound 1 µM, first compound 0.000316 µM) 42.1% | viability, T/C (second compound 1 µM, first compound 0.001 µM) 61.8% | viability, T/C (second compound 1 µM, first compound 0.00316 µM) 43.2% | viability, T/C (second compound 1 µM, first compound 0.01 µM) 32.8% | viability, T/C (second compound 1 µM, first compound 0.0316 µM) 52.6% | viability, T/C (second compound 1 µM, first compound 0.1 µM) 32.3%
active: viability, T/C (second compound 3.16 µM, first compound 0.000316 µM) 0.09% | viability, T/C (second compound 3.16 µM, first compound 0.001 µM) 0.09% | viability, T/C (second compound 3.16 µM, first compound 0.00316 µM) 0.09% | viability, T/C (second compound 3.16 µM, first compound 0.01 µM) 0.07% | viability, T/C (second compound 3.16 µM, first compound 0.0316 µM) 0.1% | viability, T/C (second compound 3.16 µM, first compound 0.1 µM) 0.19% | viability, T/C (second compound 10 µM, first compound 0.000316 µM) 0.14% | viability, T/C (second compound 10 µM, first compound 0.001 µM) 0.13% | viability, T/C (second compound 10 µM, first compound 0.00316 µM) 0.13% | viability, T/C (second compound 10 µM, first compound 0.01 µM) 0.14% | viability, T/C (second compound 10 µM, first compound 0.0316 µM) 0.16% | viability, T/C (second compound 10 µM, first compound 0.1 µM) 0.98%

C=CC(=O)N1CCN(c2nc(=O)n(-c3c(C)ccnc3C(C)C)c3nc(-c4c(O)cccc4F)c(F)cc23)C(C)C1 (centres undefined)
> 10000 nM: IC50 (compound alone, run of 08/19/2021) | IC50 (compound alone, run of 08/26/2021) | IC50 (compound alone, run of 09/02/2021)
inactive: viability, T/C (compound 0.1 µM) 92.7% [middle of 17 runs]
